Results taken from ChEMBL document CHEMBL1135788, “Novel structures derived from 2-[[(2-pyridyl)methyl]thio]-1H-benzimidazole as anti-Helicobacter pylori agents, Part 1” (2002).
≈ marks a conversion by molar mass, not a printed value. Where “and” joins values, the source holds several entries; their conditions need not be identical. Equal values may be shown once.

Key:
Format in all cases: functional
Helicobacter pylori [1] = assay: (§1) Minimum bactericidal concentration against Helicobacter pylori ATCC 43504
Helicobacter pylori [2] = assay: as §1; remark: listed apart in the source
Escherichia coli = assay: Minimum bactericidal concentration against Escherichia coli K-12
Helicobacter pylori [3] = assay: as §1; remark: listed apart in the source
Staphylococcus aureus = assay: Minimum bactericidal concentration against Staphylococcus aureus CCUG 1800T
Helicobacter pylori [4] = assay: Minimum bactericidal concentration against Helicobacter pylori ATCC 43504; range 2-4 ug/mL

Row | Compound | MBC (Helicobacter pylori [1]) | also measured
1 | Cc1c(CSc2nc3ccccc3o2)cccc1OCC(C)C | 64 µg/mL and 195 µM | 
2 | Cc1c(CCc2nc3ccccc3s2)cccc1OCC(C)C | 32 µg/mL and 98 µM | 
3 | Cc1c(OCC(C)C)ccnc1COc1nc2ccccc2o1 | 16 µg/mL and 51 µM | 
4 | COCCOCCOCCSc1cccc(CSc2nc3ccccc3[nH]2)c1C | 0.5 µg/mL and 1.16 µM | 
5 | Cc1c(CSc2nc3ccccc3s2)cccc1OCC(C)C | > 128 µg/mL and > 373 µM | 
6 | COCCOCCOCCOCCOCCSc1cccc(CSc2nc3ccccc3[nH]2)c1C | 0.5 µg/mL and 0.96 µM | 
7 | Cc1c(OCC(C)C)ccnc1CCc1nc2ccccc2o1 | 32 µg/mL and 103 µM | 
8 | Cc1c(OCC(C)C)ccnc1CNc1nc2ccccc2s1 | 32 µg/mL and 98 µM | 
9 | COCCOCCOCCOCCOCCOc1cccc(CSc2nc3ccccc3[nH]2)c1C | 2 µg/mL and 3.96 µM | 
10 | COCCOCCOCCOc1cccc(CSc2nc3ccccc3[nH]2)c1C | 4 µg/mL and 9.6 µM | 
11 | CCC(=O)c1ccc2[nH]c(SCc3cccc(SCCOCCOCCOCCOCCOC)c3C)nc2c1 | 2 µg/mL and 3.47 µM | 
12 | Cc1c(CNc2nc3ccccc3[nH]2)cccc1OCC(C)C | 2 µg/mL and 6.5 µM | 
13 | Cc1c(CNc2nc3ccccc3[nH]2)cccc1SCCN1CCOCC1 | 32 µg/mL and 107 µM | 
14 | Cc1c(CSc2nc3ccccc3[nH]2)cccc1SCC(C)C | 4 µg/mL and 8.76 µM | 
15 | Cc1c(CSc2nc3ccccc3[nH]2)cccc1SCCn1c([N+](=O)[O-])cnc1C | 2 µg/mL and 4.55 µM | 
16 | Cc1c(CCc2nc3ccccc3[nH]2)cccc1OCC(C)C | 8 µg/mL and 26 µM | 
17 | Cc1c(OCC(C)C)ccnc1CSc1nc2ccccc2o1 | 32 µg/mL and 81 µM | 
18 | Cc1c(CSc2nc3ccccc3[nH]2)cccc1OCC(C)C | 8 µg/mL and 19 µM | 
19 | Cc1c(OCC(C)C)ccnc1CCc1nc2ccccc2[nH]1 | 32 µg/mL and 103 µM | 
20 | Cc1c(OCC(C)C)ccnc1CCc1cc2ccccc2o1 | 16 µg/mL and 52 µM | 
21 | Cc1c(CCc2cc3ccccc3o2)cccc1OCC(C)C | 128 µg/mL and 415 µM | 
22 | COCCOCCOCCSc1cccc(CNc2nc3ccccc3[nH]2)c1C | 77 µM | MBC (Helicobacter pylori [2]): 32 µg/mL (≈ 77 µM)
23 | Cc1c(OCC(C)C)ccnc1CNc1nc2ccccc2[nH]1 | 8 µg/mL | MBC (Escherichia coli): 206 µM (≈ 63.9 µg/mL); MBC (Helicobacter pylori [3]): 26 µM (≈ 8.07 µg/mL); MBC (Staphylococcus aureus): 64 µg/mL (≈ 206 µM)

Row | Compound | MBC (Helicobacter pylori [1]) | also measured
24 | COCCOCCOCCOCCOCCSc1cccc(CSc2nc3cc(CO)ccc3[nH]2)c1C | 8 µg/mL and 15 µM | 
25 | Cc1c(OCC(C)C)ccnc1CNc1nc2ccccc2o1 | 32 µg/mL and 103 µM | 
26 | Cc1c(OCC(C)C)ccnc1CSc1cc2ccccc2[nH]1 | 4 µg/mL and 12 µM | 
27 | Cc1c(CSc2nc3ccccc3[nH]2)cccc1SCCn1cncn1 | 4 µg/mL and 10.5 µM | 
28 | Cc1c(CCc2cc3ccccc3[nH]2)cccc1OCC(C)C | 16 µg/mL and 52 µM | 
29 | Cc1c(COc2nc3ccccc3o2)cccc1OCC(C)C | 32 µg/mL and 103 µM | 
30 | COCCOCCOCCSc1cccc(CNc2nc3ccccc3s2)c1C | 4 µg/mL and 9.25 µM | 
31 | Cc1c(OCC(C)C)ccnc1CSc1nc2ccccc2[nH]1 | 1 µg/mL and 3 µM | 
32 | Cc1c(CSc2cc3ccccc3[nH]2)cccc1OCC(C)C | 32 µg/mL and 98 µM | 
33 | Cc1c(CSc2nc3ccccc3[nH]2)cccc1SCCN1CCOCC1 | 1 µg/mL and 2.5 µM | 
34 | Cc1c(CSc2nc3ccccc3[nH]2)cccc1OCCN1CCOCC1 | 16 µg/mL and 42 µM | 
35 | Cc1c(OCC(C)C)ccnc1COc1nc2ccccc2s1 | 16 µg/mL and 49 µM | 
36 | CCOC(=O)c1ccc2[nH]c(SCc3cccc(SCCOCCOCCOCCOCCOC)c3C)nc2c1 | 2 µg/mL and 3.37 µM | 
37 | Cc1c(OCC(C)C)ccnc1CCc1nc2ccccc2s1 | 16 µg/mL and 49 µM | 
38 | Cc1c(OCC(C)C)ccnc1CSc1nc2ccccc2s1 | 32 µg/mL and 93 µM | 
39 | Cc1c(CNc2nc3ccccc3s2)cccc1OCC(C)C | > 128 µg/mL and > 392 µM | 
40 | COCCOCCOCCOCCOCCSc1cccc(CSc2nc3cc(N)ccc3[nH]2)c1C | 8 µg/mL and 15 µM | 
41 | Cc1c(CCc2nc3ccccc3o2)cccc1OCC(C)C | 16 µg/mL and 52 µM | 
42 | Cc1c(CNc2nc3ccccc3o2)cccc1OCC(C)C | > 128 µg/mL and > 412 µM | 
43 | Cc1c(COc2nc3ccccc3s2)cccc1OCC(C)C | 128 µg/mL and 391 µM | 
44 | CC1(C)S[C@@H]2[C@H](NC(=O)[C@H](N)c3ccc(O)cc3)C(=O)N2[C@H]1C(=O)O [AMOXICILLIN] | 0.05 µg/mL | 
45 | CC[C@H]1OC(=O)[C@H](C)[C@@H](O[C@H]2C[C@@](C)(OC)[C@@H](O)[C@H](C)O2)[C@H](C)[C@@H](O[C@@H]2O[C@H](C)C[C@H](N(C)C)[C@H]2O)[C@](C)(OC)C[C@@H](C)C(=O)[C@H](C)[C@@H](O)[C@]1(C)O [CLARITHROMYCIN] | 0.1 µg/mL | 
46 | Cc1ncc([N+](=O)[O-])n1CCO [METRONIDAZOLE] |  | MBC (Helicobacter pylori [4]): 2 µg/mL (≈ 11.7 µM)
